Results from patent publication US12035716B2, “Treatment for seeds disinfection” (VILMORIN & CIE, priority 2013, dated 2024).
Read-outs that look alike come from different tables or passages of the source.

Legend:
Acidovorax citrulli [1] = conditions: for BFB by PCR method: melon, 1.0% solution, 30 vacuum cycles, sinking fraction, 5000 seeds
Method: The process: 10 kg of seed are added to 45 liters of 1% or 2% Na-Dichloroisocyanurate. The seeds are mixed in the solution for 30 minutes and then washed in running water for 10 minutes and then dried to the original water content.
Three batches of 1 kilograms of this seed lot were put in a 10 liter glass vessel together with 3.0 liters of disinfecting solution comprising of Na-Dichloroisocyanurate at 1.0%. Thirty cycles of vacuum/de-vacuum (each cycle having a duration of 1 to 1.5 minutes) were applied with three different level: (i) level A: full vacuum up to 975-985, (ii) level B: medium level of 740-816 mbar, and (iii) level C: low level of 576-667 mbar. After 40 minutes (i.e. after achieving the 30 cycles of vacuum/de-vacuum) the floating fractions were discarded and the sinking fractions were collected, washed for 40 minutes and dried.
The standard protocol can be obtained from the National Seed Health System, a program authorized by USDA-APHIS and administered by the Iowa State University Seed Science Center to accredit both private and public entities to perform certain activities needed to support the issuance of Federal phytosanitary certificates for the international movement of seed. See page 69 of the May 2014 edition of the “Vegetable Crop Method-Reference Manual B” National Seed Health System available at http://www.seedhealth.org/files/pdfVegetable_Crops.pdf.

Acidovorax citrulli [2] = conditions: watermelon seeds
Text: (§1) The vacuum cycles continue until floating seeds are no longer sinking. The floating seeds are then removed and discarded.

melon seeds = conditions: vacuum infiltration 0.5%
Acidovorax citrulli [3] = conditions: melon seeds
Text: as §1
The standard protocol can be obtained from the National Seed Health System, a program authorized by USDA-APHIS and administered by the Iowa State University Seed Science Center to accredit both private and public entities to perform certain activities needed to support the issuance of Federal phytosanitary certificates for the international movement of seed.

cucumber seeds = conditions: 1.33% solution, VI disinfection, untreated 97
Method: The germination test was performed on petri dishes (TOP) at 24 C incubator and root protrusion was counted at 4 days after seeding (TOP at 4 d).

CGMMV [4] = conditions: 1.33% solution, VI disinfection; for Seed health lab results, ELISA average count: cut-off 0.130, untreated 0.841
Method: In this case, a commercial cucumber seed lot (2 kg) naturally infected by CGMMV was treated. The infected seeds were put into a reactor containing 20 liters of Na-Dichloroisocyanurate at 1.33%. The vacuum/de-vacuum cycles (i.e. vacuum infiltration) were applied gradually starting at 500 mbar and increased by 50 mbar each cycle up to the maximum of 985 mbar. Then we continued vacuum/de-vacuum cycles at maximum vacuum pressure of 985 mbar for a total of 30 cycles. […] Both fractions were separately collected. This process took 45 minutes. CGMMV was tested by ELISA assay according to method 7-026 of the international rules for seed testing annex to chapter 7: seed health testing methods; International Seed Testing Association, Zurich, Switzerland, 2010.

CGMMV [5] = test system: CGMMV
Method: Samples of two commercial cucumber seed lots naturally infected by CGMMV in the production field were treated by standard disinfection or by vacuum infiltration methods. All treatments were done on 1500 seed in 300 ml solution for 40 minutes, followed by 40 minutes wash under running water. For the standard disinfection we used 2.5% Na-Dichloroisocyanurate solution and for the vacuum infiltration we used a solution containing 1.5% Na-Dichloroisocyanurate. The vacuum/de vacuum cycles were applied gradually starting at 500 mbar and increased by 100 mbar each cycle up to the maximum of 985 mbar. Then we continued vacuum/de-vacuum cycles at maximum vacuum pressure of 985 mbar for a total of 30 cycles. At the end of the treatment the floating seeds were discarded and the heavy fraction was collected, washed and dried for testing.
CGMMV was tested by ELISA assay according to method 7-026 of the international rules for seed testing annex to chapter 7: seed health testing methods; International Seed Testing Association, Zurich, Switzerland, 2010. The germination test was performed on petri dishes (TOP) at 24 C incubator and root protrusion was counted at 4 days after seeding (TOP at 4 d).

CGMMV [6] = test system: CGMMV; remark: listed apart in the source
Method: In this case, cucumber seeds have been obtained from a commercial seed lot, naturally infected by CGMMV in the production field.
The seeds were disinfected by standard method and by vacuum infiltration method. In this case, vacuum is applied at maximal pressure of 975-985 mbar from the beginning. […] The vacuum cycles continue until floating seeds are no longer sinking. The floating seeds are then removed and discarded. This process takes 15-20 minutes.
In this case two chemicals were used.
We also tested the effect of different concentration of Na-Dichloroisocyanurate applied by vacuum infiltration on CGMMV and germination (table II) treatment E is untreated control; treatment F is vacuum infiltration of Na-Dichloroisocyanurate 0.75%; treatment G is vacuum infiltration of Na-Dichloroisocyanurate 1.5% and treatment H is vacuum infiltration of Na-Dich loroisocyanurate 2.0%.
CGMMV was tested by ELISA assay according to method 7-026 of the international rules for seed testing annex to chapter 7: seed health testing methods; International Seed Testing Association, Zurich, Switzerland, 2010.

[7] = seed lot A, VI disinfection 1.5%, heavy fraction
[8] = seed lot A, standard disinfection 2.5%
[9] = seed lot B, VI disinfection 1.5%, heavy fraction
[10] = seed lot B, standard disinfection 2.5%

In the case of `O=c1nc([O-])n(Cl)c(=O)n1Cl.[Na+]` [Na-Dichloroisocyanurate], the “BFB infection after standard disinfection” value (“BFB infection” for short) (Acidovorax citrulli [1]; melon seeds, disinfected twice by standard protocol of example 5 (1% or 2%, 30 minutes)) is reported as “still found to be BFB infected”, the “BFB by PCR method” value (Acidovorax citrulli [1]; level A full vacuum up to 975-985) is reported as “negative” and the “BFB by PCR method” value (Acidovorax citrulli [1]; level B 740-816 mbar) is reported as “negative”. For the same molecule, the “BFB by PCR method” value (Acidovorax citrulli [1]; level C 576-667 mbar) was “negative”, the “BFB infection” value (Acidovorax citrulli [2]; standard disinfection process, 1.0% Na-Dichloroisocyanurate) was “still infected” and the “BFB by sweat box assay” value (Acidovorax citrulli [2]; vacuum infiltration, 0.2% solution, sinking fraction, 4200 seeds tested) was “negative”. The Germination (melon seeds; floating fraction, counted at 4 days) was 96%, the Germination (melon seeds; floating fraction, counted at 7 days) was 92% and the Germination (melon seeds; heavy fraction, counted at 4 days) was 99%. For the same molecule, the Germination (melon seeds; heavy fraction, counted at 7 days) was 99%, the “BFB infection” value (Acidovorax citrulli [3]; disinfected twice by standard protocol, 1% and 2%, 10 min) was “still heavily infested” and the “BFB by sweat-box assay” value (Acidovorax citrulli [3]; vacuum infiltration, 0.5% solution, floating fraction, 10,000 seeds) was “positive”. For the same molecule, the “BFB health test (PCR, seedling grow-out, sweat box)” value (Acidovorax citrulli [3]; vacuum infiltration, 0.5% solution, sinking fraction, 40,000 seeds tested) was “None of the seeds was found infected”, the “% Germination TOP at 4 d” value (cucumber seeds; floating fraction (5%)) was 62% and the “% Germination TOP at 4 d” value (cucumber seeds; sinking fraction (95%)) was 94%. The “Remarks (seed health)” value (CGMMV [4]; floating fraction (5%)) was “Contami-”, the “Seed health lab results, Positive/total replicates” value (CGMMV [4]; floating fraction (5%)) was 9/10 and the “Seed health lab results, ELISA average count” value (CGMMV [4]; floating fraction (5%)) was 0.543. The “Remarks (seed health)” value (CGMMV [4]; sinking fraction (95%)) was “Clean”, the “Seed health lab results, Positive/total replicates” value (CGMMV [4]; sinking fraction (95%)) was 0/30 and the “Seed health lab results, ELISA average count” value (CGMMV [4]; sinking fraction (95%)) was 0.081. The “ELISA 10 replicates results, Positive/total” value (CGMMV [5]; [7]) was 0/10, the “Remarks (seed health)” value (CGMMV [5]; [7]) was “Clean” and the “ELISA 10 replicates results, Average count” value (CGMMV [5]; seed lot A, VI disinfection 1.5%, heavy fraction, cut-off 0.148, untreated 0.693) was 0.072. For the same molecule, the “ELISA 10 replicates results, Positive/total” value (CGMMV [5]; [8]) was 9/10, the “Remarks (seed health)” value (CGMMV [5]; [8]) was “Contaminated” and the “ELISA 10 replicates results, Average count” value (CGMMV [5]; seed lot A, standard disinfection 2.5%, cut-off 0.174, untreated 0.693) was 0.238. For the same molecule, the “ELISA 10 replicates results, Positive/total” value (CGMMV [5]; [9]) was 0/10, the “Remarks (seed health)” value (CGMMV [5]; [9]) was “Clean” and the “ELISA 10 replicates results, Average count” value (CGMMV [5]; seed lot B, VI disinfection 1.5%, heavy fraction, cut-off 0.148, untreated 0.737) was 0.075. For the same molecule, the “ELISA 10 replicates results, Positive/total” value (CGMMV [5]; [10]) was 4/10, the “Remarks (seed health)” value (CGMMV [5]; [10]) was “Contaminated” and the “ELISA 10 replicates results, Average count” value (CGMMV [5]; seed lot B, standard disinfection 2.5%, cut-off 0.156, untreated 0.737) was 0.177. For the same molecule, the “ELISA assay result (rate of extinction at A405)” value (from here on “ELISA assay result”) (CGMMV [6]; Na-Dichloroisocyanurate 0.4%, standard disinfection, negative control 0.13) was 0.45, the “ELISA assay result” value (CGMMV [6]; Na-Dichloroisocyanurate 0.4%, vacuum infiltration, negative control 0.13) was 0.25 and the “ELISA assay result” value (CGMMV [6]; Na-Dichloroisocyanurate 0.75%, vacuum infiltration, untreated control 0.72, negative control 0.13) was 0.17. The “ELISA assay result” value (CGMMV [6]; Na-Dichloroisocyanurate 1.5%, vacuum infiltration, untreated control 0.72, negative control 0.13) was 0.13 and the “ELISA assay result” value (CGMMV [6]; Na-Dichloroisocyanurate 2.0%, vacuum infiltration, untreated control 0.72, negative control 0.13) was 0.16.
